Source: patent US20200022386A1, “METHOD OF PREPARATION OF CA[…]” (PHARCON INC., priority 2018, published 2020)
Values after ≈ are worked out from the molar mass of the structure shown.

Assay: Solubility of cannabinoids / cannabis extract in ethanol
Type: physicochemical
Settings: organic solvent or mixture, room temperature, ethyl alcohol (solvent named)
Source text: Cannabinoids have extremely low water solubility and relatively high solubility in oils and polar organic solvents such as ethanol and propylene glycol. Micro- and nanoemulsions or liposomal formulations where cannabinoids incorporated into lipid phase of the colloidal dispersion can be efficiently used for preparation of cannabis loaded products. Nevertheless, for preparation of beverages with high content of biologically active cannabis components may be complicated since solubility in the oil phase may not be high enough to provide the desired concentration of cannabinoids in the prepared beverage while keeping the product stable and palatable. Additionally, terpenes presented in extract of cannabis, visibly improve solubility of cannabinoids while pure CBD, THC or other cannabinoids have much lower solubility. […] However, since cannabis terpenes are often associated with acrid and unpleasant taste and flavor, it is preferable to use purified cannabinoids with a potency (purity) of 90-100%.
Practically all proposed SNEDS formulations of cannabinoids have oil phase consisting of food oils, mainly mono-di or triglycerides, such as medium chain triglycerides (MCT oil, coconut oil), fish oil, soy oil, olive oil, acetylated mono-and diglycerides, etc. The food oils have excellent safety profile and can provide a reasonable solubility of cannabinoids. […]

## C=C(C)[C@@H]1CCC(C)=C[C@H]1c1c(O)cc(CCCCC)cc1O [CBD, Cannabidiol]
  solubility: 25 to 36 mg/mL (≈ 79.5 to 114 mM)
